Counter-ions that a name gives are not always drawn.
Columns and labels:
[1] = tested on: NCI-H292 lung cancer cells; assay: FDA drug screening, complete media vs cholesterol-free media without statin (TABLE 1); type: cell-based, human
[2] = tested on: NCI-H292 lung cancer cells; assay: FDA drug screening, complete media vs cholesterol-free media with simvastatin (TABLE 2); type: cell-based, human; conditions: for Cholesterol-free media + simvastatin (0.04 μM) / Complete Media: NCI-H292 cells
[3] = NCI-H292 cells, cholesterol-free media without statin
[4] = complete vs cholesterol-free media, greater than 0 enhanced anti-cancer activity, about 0 neutral, below 0 antagonists
[5] = FDA drug library screen, cholesterol-free media with simvastatin 0.04 μM
[6] = FDA drug library screen, complete media
[7] = complete media minus cholesterol-free media + simvastatin, >0 enhanced anti-cancer activity, about 0 neutral, <0 antagonist
[8] = NCI-H292 cells, cholesterol-free media without statin, FDA drug library screen
[9] = NCI-H292 cells, complete media, FDA drug library screen
[10] = complete vs cholesterol-free media, >0 enhanced anti-cancer activity, about 0 neutral, <0 antagonist
[11] = Complete minus Cholesterol-free, >0 enhanced anti-cancer activity, about 0 neutral, <0 antagonist
[12] = complete media vs cholesterol-free media + simvastatin (0.04 μM), >0 enhanced anti-cancer activity, about 0 neutral, <0 antagonist
[13] = FDA library drug in cholesterol-free media with simvastatin 0.04 μM
[14] = drug in cholesterol-free media with simvastatin 0.04 μM
[15] = complete media vs cholesterol-free media + simvastatin (0.04 μM), […]
[16] = Complete minus Cholesterol-free, greater than 0 enhanced anti-cancer activity, about 0 neutral, below 0 antagonist
[17] = NCI-H292 cells, FDA drug library screen, cholesterol-free media without statin
[18] = NCI-H292 cells, FDA drug library screen, complete media
[19] = cholesterol-free media with simvastatin 0.04 μM, FDA drug library screen (TABLE 2)
[20] = complete media, FDA drug library screen (TABLE 2)
[21] = complete media minus cholesterol-free media + simvastatin (0.04 μM), >0 enhanced anti-cancer activity, about 0 neutral, <0 antagonist
[22] = Complete minus Cholesterol-free, greater than 0 enhanced anti-cancer activity, about 0 neutral, below 0 antagonists
[23] = NCI-H292 cells in cholesterol-free media without statin
[24] = NCI-H292 cells in complete media
[25] = cholesterol-free media with simvastatin 0.04 μM, cell growth value in FDA drug screen
[26] = complete media, cell growth value in FDA drug screen
[27] = Complete minus Cholesterol-free, […]
[28] = FDA library drug in complete media

Cc1cc(-c2ccccc2)nnc1NCCN1CCOCC1 [Minaprine (dihydrochloride)]
Cholesterol-free [1, 3]: 1.341 | Complete ([1]; NCI-H292 cells, complete media): 0.9021 | Difference [1, 4]: −0.44 | Cholesterol-free media + simvastatin (0.04 μM) [2, 5]: 0.8439 | Complete Media [2, 6]: 1.278 | Difference [2, 7]: 0.43

CN(C)c1ccc(O)c2c1C[C@H]1C[C@H]3[C@H](N(C)C)C(O)=C(C(N)=O)C(=O)[C@@]3(O)C(O)=C1C2=O [Minocycline (hydrochloride)]
Cholesterol-free [1, 8]: 0.8959 | Complete [1, 9]: 1.177 | Difference [1, 10]: 0.28 | Cholesterol-free media + simvastatin (0.04 μM) [2, 5]: 1.589 | Complete Media [2, 6]: 1.958 | Difference [2, 7]: 0.37

Nc1cc(N2CCCCC2)nc(N)[n+]1OS(=O)(=O)[O-] [Minoxidil sulfate]
Difference [1, 11]: −0.27 | Cholesterol-free [1, 3]: 1.329 | Complete ([1]; NCI-H292 cells, complete media): 1.056 | Cholesterol-free media + simvastatin (0.04 μM) [2, 5]: 1.144 | Complete Media [2, 6]: 1.047 | Difference [2, 12]: −0.10

Nc1cc(N2CCCCC2)nc(N)[n+]1[O-] [Minoxidil]
Difference [1, 11]: −0.20 | Cholesterol-free [1, 3]: 1.202 | Complete ([1]; NCI-H292 cells, complete media): 1.002 | Cholesterol-free media + simvastatin (0.04 μM) [2, 13]: 1.841 | Difference [2, 12]: −0.68

Nc1nc(CC(=O)Nc2ccc(CCNC[C@H](O)c3ccccc3)cc2)cs1 [Mirabegron]
Cholesterol-free [1, 3]: 1.131 | Complete ([1]; NCI-H292 cells, complete media): 0.7731 | Difference [1, 4]: −0.36 | Cholesterol-free media + simvastatin (0.04 μM) [2, 5]: 1.317 | Complete Media [2, 6]: 1.183 | Difference [2, 12]: −0.13

CCCOc1ccc(S(=O)(=O)N2CCN(CCO)CC2)cc1-c1nc2c(CCC)cn(CC)c2c(=O)[nH]1 [Mirodenafil (dihydrochloride)]
Difference [1, 11]: −0.27 | Cholesterol-free [1, 3]: 1.435 | Cholesterol-free media + simvastatin (0.04 μM) [2, 5]: 0.7461 | Complete Media [2, 6]: 0.9273 | Difference [2, 7]: 0.18

CCC1=C[C@@H]2[C@H](C1)C[C@]2(CN)CC(=O)O [Mirogabalin]
Cholesterol-free [1, 8]: 0.5074 | Complete [1, 9]: 1.015 | Difference ([1]; complete vs cholesterol-free media, […]): 0.51 | Cholesterol-free media + simvastatin (0.04 μM) [2, 14]: 1.082 | Complete Media ([2]; drug in complete media): 0.8543 | Difference [2, 15]: −0.23

CN1CCN2c3ncccc3Cc3ccccc3C2C1 (stereo not shown) [Mirtazapine]
Difference [1, 16]: −0.17 | Cholesterol-free [1, 17]: 1.176 | Complete [1, 18]: 1.005 | Cholesterol-free media + simvastatin (0.04 μM) [2, 19]: 0.9802 | Complete Media [2, 20]: 0.914 | Difference [2, 21]: −0.07

O=C(O)[C@H](CC(=O)N1C[C@H]2CCCC[C@H]2C1)Cc1ccccc1 [Mitiglinide (Calcium)]
Difference [1, 22]: −0.81 | Cholesterol-free [1, 23]: 1.668 | Complete [1, 24]: 0.8559 | Cholesterol-free media + simvastatin (0.04 μM) [2, 14]: 1.855 | Complete Media ([2]; drug in complete media): 1.594 | Difference [2, 12]: −0.26

Clc1ccc(C(c2ccccc2Cl)C(Cl)Cl)cc1 (stereo not shown) [Mitotane]
Difference [1, 11]: −0.20 | Cholesterol-free [1, 3]: 1.108 | Complete ([1]; NCI-H292 cells, complete media): 0.9109 | Cholesterol-free media + simvastatin (0.04 μM) [2, 14]: 1.345 | Complete Media ([2]; drug in complete media): 1.125 | Difference [2, 12]: −0.22

O=C1c2c(O)ccc(O)c2C(=O)c2c(NCCNCCO)ccc(NCCNCCO)c21 [Mitoxantrone (dihydrochloride)]
Difference [1, 11]: 0.00 | Cholesterol-free [1, 8]: −0.002893 | Complete [1, 9]: −0.002012 | Cholesterol-free media + simvastatin (0.04 μM) [2, 25]: 0.006643 | Complete Media [2, 26]: 0.04976 | Difference [2, 7]: 0.04

O=C1c2c(O)ccc(O)c2C(=O)c2c(NCCNCCO)ccc(NCCNCCO)c21 [Mitoxantrone]
Difference [1, 11]: −0.04 | Cholesterol-free [1, 8]: 0.007289 | Complete [1, 9]: −0.03159 | Cholesterol-free media + simvastatin (0.04 μM) [2, 19]: 0.04539 | Complete Media [2, 20]: −0.01641 | Difference [2, 21]: −0.06

COc1cc2c(cc1OC)[C@@H](Cc1cc(OC)c(OC)c(OC)c1)[N+](C)(CCCOC(=O)CC/C=C/CCC(=O)OCCC[N+]1(C)CCc3cc(OC)c(OC)cc3[C@H]1Cc1cc(OC)c(OC)c(OC)c1)CC2.[Cl-].[Cl-] (stereo partly shown) [Mivacurium (dichloride)]
Difference [1, 27]: −0.21 | Cholesterol-free [1, 3]: 0.9248 | Complete ([1]; NCI-H292 cells, complete media): 0.7178 | Cholesterol-free media + simvastatin (0.04 μM) [2, 13]: 1.752 | Complete Media [2, 28]: 1.463 | Difference [2, 15]: −0.29

CN(c1nccc(=O)[nH]1)C1CCN(c2nc3ccccc3n2Cc2ccc(F)cc2)CC1 [Mizolastine]
Difference [1, 16]: −0.17 | Cholesterol-free [1, 17]: 1.446 | Complete [1, 18]: 1.273 | Cholesterol-free media + simvastatin (0.04 μM) [2, 5]: 0.9531 | Complete Media [2, 6]: 0.8007 | Difference [2, 12]: −0.15

NC(=O)c1ncn([C@@H]2O[C@H](CO)[C@@H](O)[C@H]2O)c1O [Mizoribine]
Difference [1, 16]: −0.10 | Cholesterol-free [1, 17]: 0.879 | Complete [1, 18]: 0.7795 | Cholesterol-free media + simvastatin (0.04 μM) [2, 5]: 1.118 | Complete Media [2, 6]: 0.9745 | Difference [2, 12]: −0.14

O=C(NCCN1CCOCC1)c1ccc(Cl)cc1 [Moclobemide]
Difference [1, 11]: −0.27 | Cholesterol-free [1, 3]: 1.09 | Complete ([1]; NCI-H292 cells, complete media): 0.8213 | Cholesterol-free media + simvastatin (0.04 μM) [2, 19]: 0.9196 | Complete Media [2, 20]: 0.8957 | Difference [2, 21]: −0.02

CCOC(=O)[C@H](CCc1ccccc1)N[C@@H](C)C(=O)N1Cc2cc(OC)c(OC)cc2C[C@H]1C(=O)O [Moexipril (hydrochloride)]
Difference [1, 11]: 0.02 | Cholesterol-free [1, 8]: 1.004 | Complete [1, 9]: 1.024 | Cholesterol-free media + simvastatin (0.04 μM) [2, 13]: 1.452 | Complete Media [2, 28]: 1.081 | Difference [2, 12]: −0.37

CCOC(=O)CC(=O)N1CCSC1COc1ccccc1OC (stereo not shown) [Moguisteine]
Cholesterol-free [1, 8]: 0.7084 | Complete [1, 9]: 1.262 | Difference [1, 10]: 0.55 | Cholesterol-free media + simvastatin (0.04 μM) [2, 19]: 0.9351 | Complete Media [2, 20]: 0.879 | Difference [2, 21]: −0.06

CCc1c(C)[nH]c2c1C(=O)C(CN1CCOCC1)CC2 (stereo not shown) [Molindone (hydrochloride)]
Difference [1, 11]: −0.28 | Cholesterol-free [1, 3]: 1.138 | Complete ([1]; NCI-H292 cells, complete media): 0.8619 | Cholesterol-free media + simvastatin (0.04 μM) [2, 5]: 0.9443 | Complete Media [2, 6]: 0.8609 | Difference [2, 12]: −0.08

CCOC(=O)[N-]c1cn(N2CCOCC2)n[o+]1 [Molsidomine]
Difference [1, 22]: −0.60 | Cholesterol-free [1, 23]: 1.343 | Complete [1, 24]: 0.7419 | Cholesterol-free media + simvastatin (0.04 μM) [2, 5]: 1.15 | Complete Media [2, 6]: 1.6 | Difference [2, 7]: 0.45

C[C@@H]1C[C@H]2[C@@H]3CCC4=CC(=O)C=C[C@]4(C)[C@@]3(Cl)[C@@H](O)C[C@]2(C)[C@@]1(OC(=O)c1ccco1)C(=O)CCl [Mometasone furoate]
Difference [1, 11]: −0.24 | Cholesterol-free [1, 3]: 0.8128 | Complete ([1]; NCI-H292 cells, complete media): 0.5699 | Cholesterol-free media + simvastatin (0.04 μM) [2, 25]: 0.7611 | Complete Media [2, 26]: 0.8877 | Difference [2, 7]: 0.13

Oc1ccc(OCc2ccccc2)cc1 [Monobenzone]
Difference [1, 22]: −0.87 | Cholesterol-free [1, 23]: 1.95 | Complete [1, 24]: 1.077 | Cholesterol-free media + simvastatin (0.04 μM) [2, 5]: 1.226 | Complete Media [2, 6]: 1.137 | Difference [2, 12]: −0.09

C[C@H]1C(=O)O[C@@H]2CCN3CC=C(COC(=O)[C@](C)(O)[C@]1(C)O)[C@H]23 [Monocrotaline]
Difference [1, 27]: −0.18 | Cholesterol-free [1, 17]: 1.01 | Complete [1, 18]: 0.8289 | Cholesterol-free media + simvastatin (0.04 μM) [2, 14]: 1.209 | Complete Media ([2]; drug in complete media): 1.046 | Difference [2, 15]: −0.16

CC(C)(O)c1ccccc1CC[C@@H](SCC1(CC(=O)O)CC1)c1cccc(/C=C/c2ccc3ccc(Cl)cc3n2)c1 [Montelukast (sodium)]
Difference [1, 22]: −0.51 | Cholesterol-free [1, 23]: 1.599 | Complete [1, 24]: 1.09 | Cholesterol-free media + simvastatin (0.04 μM) [2, 25]: 0.8464 | Complete Media [2, 26]: 0.9746 | Difference [2, 7]: 0.13

Cc1ncc([N+](=O)[O-])n1CC(O)CN1CCOCC1 (stereo not drawn) [Morinidazole (R enantiomer)]
Difference [1, 11]: −0.04 | Cholesterol-free [1, 8]: 1.104 | Complete [1, 9]: 1.064 | Cholesterol-free media + simvastatin (0.04 μM) [2, 5]: 1.178 | Complete Media [2, 6]: 1.022 | Difference [2, 12]: −0.16

Cc1ncc([N+](=O)[O-])n1CC(O)CN1CCOCC1 (stereo not shown) [Morinidazole]
Cholesterol-free [1, 3]: 1.15 | Complete ([1]; NCI-H292 cells, complete media): 0.8164 | Difference [1, 4]: −0.33 | Cholesterol-free media + simvastatin (0.04 μM) [2, 5]: 1.535 | Complete Media [2, 6]: 1.676 | Difference [2, 7]: 0.14

N=C(N)/N=C(\N)N1CCOCC1 [Moroxydine (hydrochloride)]
Cholesterol-free [1, 3]: 1.172 | Complete ([1]; NCI-H292 cells, complete media): 0.8572 | Difference [1, 4]: −0.32 | Cholesterol-free media + simvastatin (0.04 μM) [2, 14]: 1.02 | Complete Media ([2]; drug in complete media): 0.8563 | Difference [2, 12]: −0.16

CO[C@@]1(NC(=O)C(C(=O)O)c2ccc(O)cc2)C(=O)N2C(C(=O)O)=C(CSc3nnnn3C)CO[C@@H]21 (stereo partly shown) [Moxalactam (sodium salt)]
Difference [1, 22]: −0.79 | Cholesterol-free [1, 23]: 1.849 | Complete [1, 24]: 1.058 | Cholesterol-free media + simvastatin (0.04 μM) [2, 13]: 1.994 | Complete Media [2, 28]: 1.097 | Difference [2, 12]: −0.90

— patent US20250144067A1, “PERSONALIZED STARVATION THERAPY FOR CANCER” (Faeth Therapeutics, Inc., priority 2021, published 2025)
